# Patent publication US20250314644A1, “METHODS COMPRISING DETECTION OF ADP-HEPTOSE” (CHILDREN'S HOSPITAL MEDICAL CENTER, priority 2023, published 2025)
# Legend:
# WT HSPCs = assay: NF-κB activation in vitro (NF-κB^GFP reporter, immunoblot); format: cell-based, mouse
# Text: Because intestinal epithelial injury and dysbiosis mediate the expansion of Dnmt3a-mutant pre-leukemic cells was observed, Applicant evaluated whether this occurs because of ADP-heptose-mediated ALPK1 signaling. Indeed, Dnmt3a^−/− HSCs were exquisitely sensitive to ADP-heptose stimulation in vitro. […] Activation of NF-κB in Dnmt3a^−/− HSPCs occurred following treatment with ADP-heptose (FIG. 3L). […] Constitutive combined activation of NF-κB and MAPK, such as during chronic inflammation with IL-1β, promotes differentiation of HSCs at the expense of self-renewal, leading to depletion of the HSC population.
# Dnmt3a^f/f and MxCre^+ (obtained from H. Lee Grimes Laboratory, CCHMC)^33, Alpk1^−/− (11 bp deletion in exon 3, C57BL/6N-Alpk1^em1Fsha/J, Cat no. 032561, Jackson Laboratory), Tifa^−/− (gift from Jun-Ichiro Inoue, University of Tokyo, Japan), and UBC-GFP (C57BL/6-Tg(UBC-GFP)30Scha/J, Cat no. 004353, Jackson Laboratory) mice were maintained on CD45.2+C57BL/6 background. NF-kB^GFP reporter mice were generously provided by C. Jobin. Throughout the study, CD45.1+B6.SJL-Ptprc^a (BoyJ) mice were used as recipients for BM transplantation experiments. […] Mice were bred, housed and monitored daily by laboratory staff and veterinary personnel for health and activity. […]
# Protein concentration was evaluated by bicinchoninic acid (BCA) assay (Pierce, Cat #23225). […]
# [1] = system: Dnmt3a^KO; Alpk1^KO cells; assay: RNA-sequencing of HSPCs treated in vitro with ADP-heptose or H2O for 90 minutes; format: cell-based, mouse; conditions: vs H2O
smiles,measurement,setting,value
"Nc1ncnc2c1ncn2[C@@H]1O[C@H](COP(=O)(O)OP(=O)(O)O[C@@H]2O[C@H]([C@H](O)CO)[C@@H](O)[C@H](O)[C@@H]2O)[C@@H](O)[C@H]1O [ADP-heptose, ADP-D-glycero-β-D-manno-heptose]",concentration of ADP-heptose required to induce NF-κB activation,WT HSPCs,> 1 µM
same,logFC 7fp418,[1],−0.871
same,logFC 1110019D14Rik,[1],−0.854
same,logFC 1700037C18Rik,[1],0.829
same,logFC 2810408A11Rik,[1],−0.812
same,logFC 4930451G09Rik,[1],0.8284
same,logFC 4933407K13Rik,[1],−0.692
same,logFC 5031425F14Rik,[1],0.715
same,logFC 9330182L06Rik,[1],−1.241
same,logFC A430105I19Rik,[1],1.602
same,logFC A930013F10Rik,[1],0.5873
same,logFC AI607873,[1],0.7333
same,logFC Abcb4,[1],0.7782
same,logFC Ambp,[1],0.8742
same,logFC Aqp1,[1],0.6005
same,logFC Arg1,[1],1.214
same,logFC Azin2,[1],0.7217
same,logFC BC100530,[1],−0.982
same,logFC Bambi-ps1,[1],−0.651
same,logFC Caprin2,[1],−0.787
same,logFC Ces1d,[1],−0.735
same,logFC Cgref1,[1],1.029
same,logFC Ctsf,[1],−0.836
same,logFC Ctsk,[1],−0.954
same,logFC D630023F18Rik,[1],−0.819
same,logFC Epha7,[1],−0.73
same,logFC Erdr1,[1],−1.542
same,logFC Foxd4,[1],−0.677
same,logFC Gas6,[1],−0.682
same,logFC Gbp9,[1],1.092
same,logFC Gm4285,[1],−1.087
same,logFC Gm5069,[1],−0.82
same,logFC Gm15694,[1],0.9249
same,logFC Gm16023,[1],0.8494
same,logFC Gm21057,[1],−1.133
same,logFC Hist1h1e,[1],−0.799
same,logFC Hist1h2be,[1],−1.019
same,logFC Hist1h4h,[1],−1.162
same,logFC Hmga1,[1],−0.621
same,logFC Irf7,[1],0.6473
same,logFC Isg15,[1],0.6427
same,logFC Kif1a,[1],−0.954
same,logFC Kif9,[1],1.387
same,logFC Lars2,[1],−1.194
same,logFC Lrrc51,[1],1.737
same,logFC Ltc4s,[1],0.978
same,logFC Ly6i,[1],0.764
same,logFC Nefh,[1],0.6222
same,logFC Nr1h3,[1],−0.655
same,logFC Oas1g,[1],0.6168
same,logFC Oas2,[1],0.8787
same,logFC Oas3,[1],0.6718
same,logFC Oasl1,[1],0.7357
same,logFC Oasl2,[1],0.9665
same,logFC Paqr3,[1],−0.758
same,logFC Pcsk9,[1],−1.15
same,logFC Rhcg,[1],1.146
same,logFC Rn45s,[1],−1.533
same,logFC Rsad2,[1],0.9464
same,logFC Rtp4,[1],1.172
same,logFC Sdhaf3,[1],−0.856
same,logFC Sfxn4,[1],−1.009
same,logFC Slfn5,[1],1.078
same,logFC Stac3,[1],0.7901
same,logFC Stbd1,[1],0.9881
same,logFC Stxbp3-ps,[1],−0.814
same,logFC Syp,[1],0.7928
same,logFC Tagln,[1],1.205
same,logFC Tchh,[1],1.26
same,logFC Tle6,[1],−0.734
same,logFC Usp18,[1],0.7247
same,logFC Xaf1,[1],0.6469
same,logFC Zbp1,[1],0.6712
same,logFC Zdhhc2,[1],0.7176
same,logFC Zdhhc15,[1],0.9343
same,logFC Zfp54,[1],−0.829
